Laboratory results: ChEMBL document CHEMBL2434892, “Flavones as isosteres of 4(1H)-quinolones: discovery of ligand efficient and dual stage antimalarial lead compounds” (Eur J Med Chem, 2013)

Tests used:
Plasmodium falciparum = test: Antiplasmodial activity against chloroquine-resistant blood stage of Plasmodium falciparum W2 infected in human RBC after 48 hrs by flow cytometric analysis; assay type: functional, organism-based; conditions: W2, 48 h
Plasmodium berghei [1] = test: microbe, parasite or virus in culture; conditions: Huh-7, Liver
Description: Antiplasmodial activity against liver sporozoite stage of Plasmodium berghei expressing luciferase and GFP infected in human HuH7 cells assessed as inhibition of parasite development incubated for 1 hr prior to parasite infection measured after 48 hrs by Alamar blue assay

[2] = Cytotoxicity against human HuH7 cells assessed as cell viability after 48 hrs by Alamar blue assay; assay type: cell-based, Huh-7
Plasmodium berghei [3] = test: Antiplasmodial activity against liver sporozoite stage of Plasmodium berghei ANKA expressing GFP infected in human HuH7 cells assessed as inhibition of parasite development after 24 hrs by qRT-PCR analysis; assay type: functional, organism-based; conditions: Huh-7, Liver

IC50 (Plasmodium berghei [3]) | SMILES | IC50 (Plasmodium falciparum) | IC50 (Plasmodium berghei [1]) | CC50 at 48 h [2]
– | Nc1ccc(-c2ccc(-c3cc(=O)c4ccccc4o3)cc2)cn1 | 3.88 µM | 1.9 µM | > 15 µM
– | O=c1cc(-c2ccc(-c3ccc(F)cc3)cc2)oc2ccccc12 | > 25 µM | – | –
– | Cc1cc2oc(-c3ccc(-c4ccccc4)cc3)cc(=O)c2cc1Cl | 14 µM | 8.5 µM | > 90 µM
– | Cc1cc2oc(-c3ccc(OCCCC(F)(F)F)cc3)cc(=O)c2cc1Cl | 17.2 µM | – | –
– | Cc1cc2oc(-c3ccc(Oc4ccc(Cl)cc4)cc3)cc(=O)c2cc1Cl | 23.2 µM | – | –
– | O=Cc1ccc(-c2ccc(-c3cc(=O)c4ccccc4o3)cc2)cc1 | > 25 µM | – | –
– | Cc1cc2oc(-c3ccc(-c4ccccc4)cc3)c(Br)c(=O)c2cc1Cl | > 25 µM | – | –
20 µM | O=c1c(-c2ccc(O)cc2)coc2cc(O)cc(O)c12 [GENISTEIN] | – | – | –
– | O=c1cc(-c2ccc(-c3ccccc3)cc2)oc2ccccc12 | > 25 µM | – | –
– | O=c1c(Br)c(-c2ccc(-c3ccccc3)cc2)oc2cc(CBr)c(Cl)cc12 | 5.96 µM | – | –
– | O=c1cc(-c2ccc(Oc3ccc(Cl)cc3)cc2)oc2ccccc12 | 21 µM | 6.2 µM | > 180 µM
– | Cc1cc2oc(-c3ccc(Oc4ccc(OC(F)(F)F)cc4)cc3)cc(=O)c2cc1Cl | > 25 µM | – | –
– | O=c1cc(-c2ccc(Oc3cccc(OC(F)(F)F)c3)cc2)oc2ccccc12 | 14.9 µM | – | –
– | O=c1cc(-c2ccc(Oc3ccc(Cl)cc3)cc2)oc2ccc(Cl)cc12 | > 25 µM | – | –
– | O=c1cc(-c2ccc(-c3ccc(Cl)cc3)cc2)oc2ccccc12 | > 10 µM | – | –
– | O=c1cc(-c2ccc(Oc3ccc(Cl)cc3)cc2)oc2cc(Cl)ccc12 | 12.6 µM | – | –
– | O=c1cc(-c2ccc(Br)cc2)oc2ccccc12 | > 25 µM | – | –
– | Cc1ccc2c(=O)cc(-c3ccc(Oc4ccc(Cl)cc4)cc3)oc2c1 | 19.7 µM | 4.1 µM | > 50 µM
– | O=c1cc(-c2ccc(-c3cnc4ccccc4c3)cc2)oc2ccccc12 | 5.17 µM | – | –
